Test results published in US9908886B2 (Agency for Science, Technology and Research, priority 2012, dated 2018).
pIC50: −log10 of the molar value. Counter-ions that a name gives are not always drawn.

How the values were obtained:
MNK1 = MNK1 (Homo sapiens, UniProt Q9BUB5); experiment: In vitro MNK kinase assay (Caliper LabChip mobility shift); type: biochemical; settings: enzymatic, 1.2 mM ATP; read-out: IC50 Mnk1
MNK2 = MNK2 (Homo sapiens (Human), UniProt Q9HBH9); experiment: as above; type: biochemical; settings: enzymatic, 250 μM ATP; read-out: IC50 Mnk2
MNK2, sequence (Q9HBH9 84-388): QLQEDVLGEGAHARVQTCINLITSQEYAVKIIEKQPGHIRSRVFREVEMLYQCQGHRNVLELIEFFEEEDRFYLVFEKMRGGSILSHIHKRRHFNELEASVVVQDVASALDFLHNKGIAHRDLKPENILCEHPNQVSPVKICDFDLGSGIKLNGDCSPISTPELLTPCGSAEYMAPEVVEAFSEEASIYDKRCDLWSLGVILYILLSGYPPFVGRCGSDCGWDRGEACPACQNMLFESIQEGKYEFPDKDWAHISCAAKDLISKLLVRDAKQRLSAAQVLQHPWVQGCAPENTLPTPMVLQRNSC

Row | pIC50 (MNK1) | pIC50 (MNK2) | SMILES
1 | > 7.00 | > 7.00 | N#Cc1ccc(-c2cnc3ccc(-c4ccc(C(=O)N5CCC(O)CC5)cc4)nn23)cc1 [Example 55, 4-(6-(4-(4-hydroxypiperidine-1-carbonyl)phenyl)imidazo[1,2-b]pyridazin-3-yl)benzonitrile]
2 | > 7.00 | > 7.00 | N#Cc1ccc(-c2cnc3ccc(-c4ccc(C(=O)N5CCC(N)CC5)cc4)nn23)cc1 [Example 56, 4-(6-(4-(4-aminopiperidine-1-carbonyl)phenyl)imidazo[1,2-b]pyridazin-3-yl)benzonitrile]
3 | > 7.00 | > 7.00 | CC(=O)NC1CCN(C(=O)c2ccc(-c3ccc4ncc(-c5ccc(C#N)cc5)n4n3)cc2)CC1 [Example 57, N-(1-(4-(3-(4-cyanophenyl)imidazo[1,2-b]pyridazin-6-yl)benzoyl)piperidin-4-yl)acetamide]
4 | > 7.00 | > 7.00 | CC1(N)CCN(C(=O)c2ccc(-c3ccc4ncc(-c5ccc(C#N)cc5)n4n3)cc2)CC1 [Example 58, 4-(6-(4-(4-amino-4-methylpiperidine-1-carbonyl)phenyl)imidazo[1,2-b]pyridazin-3-yl)benzonitrile]
5 | > 7.00 | > 7.00 | CC(C)N1CCN(C(=O)c2ccc(-c3ccc4ncc(-c5ccc(C#N)cc5)n4n3)cc2)CC1 [Example 59, 4-(6-(4-(4-isopropylpiperazine-1-carbonyl)phenyl)imidazo[1,2-b]pyridazin-3-yl)benzonitrile]
6 | > 7.00 | > 7.00 | CNC1CCN(C(=O)c2ccc(-c3ccc4ncc(-c5ccc(C#N)cc5)n4n3)cc2)CC1 [Example 60, 4-(6-(4-(4-(methylamino)piperidine-1-carbonyl)phenyl)imidazo[1,2-b]pyridazin-3-yl)benzonitrile]
7 | > 7.00 | > 7.00 | CN(C)C1CCN(C(=O)c2ccc(-c3ccc4ncc(-c5ccc(C#N)cc5)n4n3)cc2)CC1 [Example 63, 4-(6-(4-(4-(dimethylamino)piperidine-1-carbonyl)phenyl)imidazo[1,2-b]pyridazin-3-yl)benzonitrile]
8 | > 7.00 | > 7.00 | N#Cc1ccc(-c2cnc3ccc(-c4ccc(C(=O)N5CCCOCC5)cc4)nn23)cc1 [Example 64, 4-(6-(4-(1,4-oxazepane-4-carbonyl)phenyl)imidazo[1,2-b]pyridazin-3-yl)benzonitrile]
9 | > 7.00 | > 7.00 | N#Cc1ccc(-c2cnc3ccc(-c4ccc(C(=O)N5CCNCC5)cc4)nn23)cc1 [Example 65, 4-(6-(4-(piperazine-1-carbonyl)phenyl)imidazo[1,2-b]pyridazin-3-yl)benzonitrile]
10 | > 7.00 | > 7.00 | CCC1(NC(C)=O)CCN(C(=O)c2ccc(-c3ccc4ncc(-c5ccc(C#N)cc5)n4n3)cc2)CC1 [Example 66, N-(1-(4-(3-(4-cyanophenyl)imidazo[1,2-b]pyridazin-6-yl)benzoyl)-4-ethylpiperidin-4-yl)acetamide]
11 | > 7.00 | > 7.00 | N#Cc1ccc(-c2cnc3ccc(-c4ccc(C(=O)N5CCNC(=O)C5)cc4)nn23)cc1 [Example 68, 4-(6-(4-(3-oxopiperazine-1-carbonyl)phenyl)imidazo[1,2-b]pyridazin-3-yl)benzonitrile]
12 | > 7.00 | > 7.00 | CN1CCN(C(=O)c2ccc(-c3ccc4ncc(-c5ccc(C#N)cc5)n4n3)cc2)CC1=O [Example 69, 4-(6-(4-(4-methyl-3-oxopiperazine-1-carbonyl)phenyl)imidazo[1,2-b]pyridazin-3-yl)benzonitrile]
13 | > 7.00 | > 7.00 | CN1CCN(C2CCN(C(=O)c3ccc(-c4ccc5ncc(-c6ccc(C#N)cc6)n5n4)cc3)CC2)CC1 [Example 70, 4-(6-(4-(4-(4-methylpiperazin-1-yl)piperidine-1-carbonyl)phenyl)imidazo[1,2-b]pyridazin-3-yl)benzonitrile]
14 | > 7.00 | > 7.00 | N#Cc1ccc(-c2cnc3ccc(-c4ccc(C(=O)N5CCC6(CCCCN6)CC5)cc4)nn23)cc1 [Example 71, 4-(6-(4-(1,9-diazaspiro[5.5]undecane-9-carbonyl)phenyl)imidazo[1,2-b]pyridazin-3-yl)benzonitrile]
15 | > 7.00 | > 7.00 | CN1CCN(C(=O)c2ccc(-c3ccc4ncc(-c5ccc(C#N)cc5)n4n3)cc2Cl)CC1 [Example 72, 4-(6-(3-chloro-4-(4-methylpiperazine-1-carbonyl)phenyl)imidazo[1,2-b]pyridazin-3-yl)benzonitrile]
16 | > 7.00 | > 7.00 | CN1CCN(C(=O)c2ccc(-c3ccc4ncc(-c5ccc(C#N)cc5)n4n3)cc2F)CC1 [Example 73, 4-(6-(3-fluoro-4-(4-methylpiperazine-1-carbonyl)phenyl)imidazo[1,2-b]pyridazin-3-yl)benzonitrile]
17 | > 7.00 | > 7.00 | Cc1cc(-c2ccc3ncc(-c4ccc(C#N)cc4)n3n2)ccc1C(=O)N1CCN(C)CC1 [Example 74, 4-(6-(3-methyl-4-(4-methylpiperazine-1-carbonyl)phenyl)imidazo[1,2-b]pyridazin-3-yl)benzonitrile]
18 | > 7.00 | > 7.00 | COc1cc(C(=O)N2CCN(C)CC2)ccc1-c1ccc2ncc(-c3ccc(C#N)cc3)n2n1 [Example 78, 4-(6-(2-methoxy-4-(4-methylpiperazine-1-carbonyl)phenyl)imidazo[1,2-b]pyridazin-3-yl)benzonitrile]
19 | > 7.00 | > 7.00 | CN1CCN(C(=O)c2ccc(-c3ccc4ncc(-c5ccc(C#N)cc5)n4n3)cc2[N+](=O)[O-])CC1 [Example 79, 4-(6-(4-(4-methylpiperazine-1-carbonyl)-3-nitrophenyl)imidazo[1,2-b]pyridazin-3-yl)benzonitrile]
20 | > 7.00 | > 7.00 | CN1CCN(C(=O)c2ccc(-c3ccc4ncc(-c5ccc6c(c5)CC(=O)N6)n4n3)cc2)CC1 [Example 85, 5-(6-(4-(4-methylpiperazine-1-carbonyl)phenyl)imidazo[1,2-b]pyridazin-3-yl)indolin-2-one]
21 | > 7.00 | > 7.00 | CN1CCN(C(=O)c2ccc(-c3ccc4ncc(-c5ccc6[nH]ncc6c5)n4n3)cc2)CC1 [Example 86, (4-(3-(1H-indazol-5-yl)imidazo[1,2-b]pyridazin-6-yl)phenyl)(4-methylpiperazin-1-yl)methanone]
22 | > 7.00 | > 7.00 | CN1CCN(C(=O)c2ccc(-c3ccc4ncc(-c5ccc6[nH]cnc6c5)n4n3)cc2)CC1 [Example 87, (4-(3-(1H-benzo[d]imidazol-5-yl)imidazo[1,2-b]pyridazin-6-yl)phenyl)(4-methylpiperazin-1-yl)methanone]

Row | SMILES | pIC50 (MNK1) | pIC50 (MNK2)
23 | O=C(c1ccc(-c2cn3c(-c4ccc(Cl)cc4)cnc3cn2)cc1)N1CCNCC1 [Example 46, (4-(3-(4-chlorophenyl)imidazo[1,2-a]pyrazin-6-yl)phenyl)(piperazin-1-yl)methanone 2,2,2-trifluoroacetate salt] | > 6.00 | > 6.00
24 | CC(=O)Nc1cc(-c2ccc3ncc(-c4ccc(C#N)cc4)n3n2)ccc1C(=O)N1CCC(N(C)C)CC1 [Example 81, N-(5-(3-(4-cyanophenyl)imidazo[1,2-b]pyridazin-6-yl)-2-(4-(dimethylamino)piperidine-1-carbonyl)phenyl)acetamide] | > 7.00 | > 7.00
